Experiments:
[1] = molecular target: Mitogen-activated protein kinase kinase kinase kinase 4 (Homo sapiens) (UniProt O95819); test: Inhibition of human recombinant HGK at 500 nM in presence of ATP by radiometric assay relative to control
[2] = molecular target: T1, Ephrin type-A receptor 8 (Homo sapiens) (UniProt P29322); test: Inhibition of human recombinant EphA8 at 500 nM in presence of ATP by radiometric assay relative to control
T1 sequence (whole entry): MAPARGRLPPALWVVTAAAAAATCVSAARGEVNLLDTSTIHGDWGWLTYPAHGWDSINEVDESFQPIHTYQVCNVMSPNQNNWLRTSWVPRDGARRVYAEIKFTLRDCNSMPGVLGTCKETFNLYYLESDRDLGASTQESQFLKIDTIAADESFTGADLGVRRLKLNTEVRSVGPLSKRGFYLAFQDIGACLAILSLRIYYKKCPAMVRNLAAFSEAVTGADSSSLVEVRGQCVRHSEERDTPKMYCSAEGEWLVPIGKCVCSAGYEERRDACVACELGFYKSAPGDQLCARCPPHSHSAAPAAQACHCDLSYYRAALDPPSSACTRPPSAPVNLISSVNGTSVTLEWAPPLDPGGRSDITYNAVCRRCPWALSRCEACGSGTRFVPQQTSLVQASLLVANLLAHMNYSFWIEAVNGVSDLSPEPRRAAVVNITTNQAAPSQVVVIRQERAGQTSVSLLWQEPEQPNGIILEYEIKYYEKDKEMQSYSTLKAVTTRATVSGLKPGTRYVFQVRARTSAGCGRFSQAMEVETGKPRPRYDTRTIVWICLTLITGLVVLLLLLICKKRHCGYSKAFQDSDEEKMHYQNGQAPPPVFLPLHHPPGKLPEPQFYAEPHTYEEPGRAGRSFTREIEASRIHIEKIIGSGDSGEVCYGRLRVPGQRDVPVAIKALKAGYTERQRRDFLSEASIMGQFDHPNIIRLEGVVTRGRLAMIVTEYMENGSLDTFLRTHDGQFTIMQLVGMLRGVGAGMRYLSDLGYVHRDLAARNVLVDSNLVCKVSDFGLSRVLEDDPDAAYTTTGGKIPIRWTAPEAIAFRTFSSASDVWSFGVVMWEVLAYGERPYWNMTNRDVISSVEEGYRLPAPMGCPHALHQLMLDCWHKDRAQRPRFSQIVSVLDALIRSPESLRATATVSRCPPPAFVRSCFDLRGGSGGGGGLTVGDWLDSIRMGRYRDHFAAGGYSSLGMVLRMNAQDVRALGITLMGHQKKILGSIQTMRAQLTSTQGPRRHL

[3] = molecular target: Death-associated protein kinase 3 (Homo sapiens) (UniProt O43293); test: Inhibition of human recombinant DAPK3 at 500 nM related to control ULK1
Death-associated protein kinase 3 (Homo sapiens), sequence (O43293 whole entry, looked up): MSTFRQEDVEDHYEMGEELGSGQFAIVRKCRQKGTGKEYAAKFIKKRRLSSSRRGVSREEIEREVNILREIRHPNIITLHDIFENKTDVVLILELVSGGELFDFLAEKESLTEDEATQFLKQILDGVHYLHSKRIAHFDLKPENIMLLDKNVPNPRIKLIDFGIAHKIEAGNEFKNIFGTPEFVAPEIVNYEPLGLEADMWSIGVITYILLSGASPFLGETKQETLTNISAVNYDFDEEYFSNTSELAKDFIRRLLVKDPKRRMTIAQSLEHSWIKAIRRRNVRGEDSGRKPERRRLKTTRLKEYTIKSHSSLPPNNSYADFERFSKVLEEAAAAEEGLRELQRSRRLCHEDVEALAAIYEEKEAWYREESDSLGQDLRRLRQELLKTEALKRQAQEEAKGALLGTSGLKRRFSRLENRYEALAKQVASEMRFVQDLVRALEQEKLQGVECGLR

[4] = molecular target: Transient receptor potential cation channel subfamily M member 7 (Homo sapiens) (UniProt Q96QT4); test: Inhibition of human recombinant ChaK1 at 15 nM in presence of ATP by radiometric assay relative to control
[5] = molecular target: Cyclin-dependent kinase 1 (Homo sapiens) (UniProt P06493); test: Inhibition of human recombinant CDC2 at 15 nM in presence of ATP by radiometric assay relative to control
Cyclin-dependent kinase 1 (Homo sapiens), sequence (P06493 whole entry, looked up): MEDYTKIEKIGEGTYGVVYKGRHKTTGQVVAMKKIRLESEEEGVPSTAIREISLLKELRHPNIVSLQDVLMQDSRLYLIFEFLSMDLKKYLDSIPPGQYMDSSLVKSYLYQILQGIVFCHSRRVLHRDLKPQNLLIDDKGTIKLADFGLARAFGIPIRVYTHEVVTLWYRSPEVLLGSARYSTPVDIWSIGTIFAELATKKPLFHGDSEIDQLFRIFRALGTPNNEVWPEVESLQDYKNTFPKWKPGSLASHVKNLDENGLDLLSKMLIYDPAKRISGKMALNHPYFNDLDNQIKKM

[6] = molecular target: Calcium/calmodulin-dependent protein kinase type II subunit alpha (Homo sapiens) (UniProt Q9UQM7); test: Inhibition of human recombinant CaMK2a at 15 nM related to control ULK1
Calcium/calmodulin-dependent protein kinase type II subunit alpha (Homo sapiens), sequence (Q9UQM7 whole entry): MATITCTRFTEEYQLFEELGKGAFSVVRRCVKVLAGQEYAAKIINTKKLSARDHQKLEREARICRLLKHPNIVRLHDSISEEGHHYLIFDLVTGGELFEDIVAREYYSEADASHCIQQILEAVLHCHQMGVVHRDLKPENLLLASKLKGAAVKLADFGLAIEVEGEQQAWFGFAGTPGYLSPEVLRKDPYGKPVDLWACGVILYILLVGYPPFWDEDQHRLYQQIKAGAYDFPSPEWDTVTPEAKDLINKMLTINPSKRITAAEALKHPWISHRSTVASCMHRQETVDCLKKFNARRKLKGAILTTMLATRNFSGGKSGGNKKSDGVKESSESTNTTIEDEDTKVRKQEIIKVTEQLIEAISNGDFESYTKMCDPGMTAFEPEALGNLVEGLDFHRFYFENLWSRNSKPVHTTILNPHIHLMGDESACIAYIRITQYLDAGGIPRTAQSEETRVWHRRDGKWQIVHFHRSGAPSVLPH

[7] = molecular target: T2, MAP/microtubule affinity-regulating kinase 4 (Homo sapiens) (UniProt Q96L34); test: Inhibition of human recombinant MARK4 at 15 nM in presence of ATP by radiometric assay relative to control
T2 sequence (whole entry): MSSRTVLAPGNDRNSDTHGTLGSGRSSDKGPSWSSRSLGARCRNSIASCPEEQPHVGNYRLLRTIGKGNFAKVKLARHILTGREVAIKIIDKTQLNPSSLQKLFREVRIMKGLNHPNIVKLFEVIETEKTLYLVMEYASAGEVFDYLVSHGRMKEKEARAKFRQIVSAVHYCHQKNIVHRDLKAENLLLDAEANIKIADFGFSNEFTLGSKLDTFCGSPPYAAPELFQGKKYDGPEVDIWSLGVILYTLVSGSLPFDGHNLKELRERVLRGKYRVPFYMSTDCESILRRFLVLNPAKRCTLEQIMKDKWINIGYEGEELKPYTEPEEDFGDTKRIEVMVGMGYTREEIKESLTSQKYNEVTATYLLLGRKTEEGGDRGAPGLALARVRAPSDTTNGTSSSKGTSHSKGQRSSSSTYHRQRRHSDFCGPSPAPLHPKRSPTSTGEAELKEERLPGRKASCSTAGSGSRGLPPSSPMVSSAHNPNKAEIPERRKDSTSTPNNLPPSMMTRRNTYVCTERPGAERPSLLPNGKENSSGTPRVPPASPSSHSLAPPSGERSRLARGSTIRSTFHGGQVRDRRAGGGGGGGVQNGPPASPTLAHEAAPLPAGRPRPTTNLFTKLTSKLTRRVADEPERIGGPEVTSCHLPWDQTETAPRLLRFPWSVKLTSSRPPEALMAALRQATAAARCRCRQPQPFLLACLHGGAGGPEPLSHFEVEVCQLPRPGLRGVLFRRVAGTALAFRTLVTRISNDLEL

[8] = molecular target: Serine/threonine-protein kinase MARK2 (Homo sapiens) (UniProt Q7KZI7); test: Inhibition of human recombinant MARK2 at 15 nM in presence of ATP by radiometric assay relative to control
Serine/threonine-protein kinase MARK2 (Homo sapiens), sequence (Q7KZI7 whole entry): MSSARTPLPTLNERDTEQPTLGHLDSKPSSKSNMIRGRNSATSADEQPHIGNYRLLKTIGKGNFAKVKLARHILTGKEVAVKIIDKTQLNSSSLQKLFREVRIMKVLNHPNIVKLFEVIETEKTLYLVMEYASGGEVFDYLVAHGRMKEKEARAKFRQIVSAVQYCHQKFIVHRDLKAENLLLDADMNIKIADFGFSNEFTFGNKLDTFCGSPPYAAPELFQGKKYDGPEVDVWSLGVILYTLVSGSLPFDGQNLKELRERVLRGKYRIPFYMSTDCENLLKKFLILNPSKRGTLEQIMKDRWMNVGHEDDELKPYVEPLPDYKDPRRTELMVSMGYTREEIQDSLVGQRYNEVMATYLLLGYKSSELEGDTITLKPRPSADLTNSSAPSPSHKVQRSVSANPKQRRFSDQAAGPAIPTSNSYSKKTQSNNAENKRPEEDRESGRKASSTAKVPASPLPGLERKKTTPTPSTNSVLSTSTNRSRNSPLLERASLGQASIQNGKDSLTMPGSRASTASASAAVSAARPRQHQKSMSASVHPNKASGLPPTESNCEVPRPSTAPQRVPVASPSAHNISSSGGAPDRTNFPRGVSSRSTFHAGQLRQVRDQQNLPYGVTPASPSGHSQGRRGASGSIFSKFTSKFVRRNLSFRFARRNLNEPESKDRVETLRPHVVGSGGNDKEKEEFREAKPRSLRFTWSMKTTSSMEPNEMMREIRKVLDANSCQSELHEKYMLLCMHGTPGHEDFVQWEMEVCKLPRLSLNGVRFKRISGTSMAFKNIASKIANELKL

[9] = molecular target: Tyrosine-protein kinase HCK (Homo sapiens) (UniProt P08631); test: Inhibition of human recombinant HCK at 40 nM in presence of ATP by radiometric assay relative to control
Tyrosine-protein kinase HCK (Homo sapiens), sequence (P08631 2-526 limits assumed): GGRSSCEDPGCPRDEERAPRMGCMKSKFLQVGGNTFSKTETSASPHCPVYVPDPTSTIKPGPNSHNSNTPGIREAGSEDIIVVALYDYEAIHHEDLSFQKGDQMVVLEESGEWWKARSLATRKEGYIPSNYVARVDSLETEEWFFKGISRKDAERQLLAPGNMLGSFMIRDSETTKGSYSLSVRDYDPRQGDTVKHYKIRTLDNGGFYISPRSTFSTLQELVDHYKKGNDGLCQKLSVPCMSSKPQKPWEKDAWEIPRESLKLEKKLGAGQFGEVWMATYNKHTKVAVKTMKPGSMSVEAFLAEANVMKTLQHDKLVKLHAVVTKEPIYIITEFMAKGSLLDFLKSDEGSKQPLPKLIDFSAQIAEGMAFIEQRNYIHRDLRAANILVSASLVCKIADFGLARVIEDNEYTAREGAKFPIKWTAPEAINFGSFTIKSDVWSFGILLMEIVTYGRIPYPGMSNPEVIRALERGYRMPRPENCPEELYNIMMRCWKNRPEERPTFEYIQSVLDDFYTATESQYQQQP

[10] = molecular target: T3, Serine/threonine-protein kinase 17B (Homo sapiens) (UniProt O94768); test: Inhibition of human recombinant DRAK2 at 40 nM related to control ULK1
T3 sequence (whole entry): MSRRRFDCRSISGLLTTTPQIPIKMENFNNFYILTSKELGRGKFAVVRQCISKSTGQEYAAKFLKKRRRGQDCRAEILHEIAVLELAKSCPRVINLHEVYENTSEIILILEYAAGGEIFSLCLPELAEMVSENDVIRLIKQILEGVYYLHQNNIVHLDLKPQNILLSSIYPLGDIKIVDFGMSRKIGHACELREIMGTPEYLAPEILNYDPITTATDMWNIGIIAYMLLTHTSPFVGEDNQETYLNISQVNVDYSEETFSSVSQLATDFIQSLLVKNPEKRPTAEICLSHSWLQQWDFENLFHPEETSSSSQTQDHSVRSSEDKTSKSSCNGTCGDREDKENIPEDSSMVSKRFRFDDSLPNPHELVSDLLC

[11] = molecular target: Interleukin-1 receptor-associated kinase 1 (Homo sapiens) (UniProt P51617); test: Inhibition of human recombinant IRAK1 at 40 nM related to control ULK1
Interleukin-1 receptor-associated kinase 1 (Homo sapiens), sequence (P51617 whole entry, looked up): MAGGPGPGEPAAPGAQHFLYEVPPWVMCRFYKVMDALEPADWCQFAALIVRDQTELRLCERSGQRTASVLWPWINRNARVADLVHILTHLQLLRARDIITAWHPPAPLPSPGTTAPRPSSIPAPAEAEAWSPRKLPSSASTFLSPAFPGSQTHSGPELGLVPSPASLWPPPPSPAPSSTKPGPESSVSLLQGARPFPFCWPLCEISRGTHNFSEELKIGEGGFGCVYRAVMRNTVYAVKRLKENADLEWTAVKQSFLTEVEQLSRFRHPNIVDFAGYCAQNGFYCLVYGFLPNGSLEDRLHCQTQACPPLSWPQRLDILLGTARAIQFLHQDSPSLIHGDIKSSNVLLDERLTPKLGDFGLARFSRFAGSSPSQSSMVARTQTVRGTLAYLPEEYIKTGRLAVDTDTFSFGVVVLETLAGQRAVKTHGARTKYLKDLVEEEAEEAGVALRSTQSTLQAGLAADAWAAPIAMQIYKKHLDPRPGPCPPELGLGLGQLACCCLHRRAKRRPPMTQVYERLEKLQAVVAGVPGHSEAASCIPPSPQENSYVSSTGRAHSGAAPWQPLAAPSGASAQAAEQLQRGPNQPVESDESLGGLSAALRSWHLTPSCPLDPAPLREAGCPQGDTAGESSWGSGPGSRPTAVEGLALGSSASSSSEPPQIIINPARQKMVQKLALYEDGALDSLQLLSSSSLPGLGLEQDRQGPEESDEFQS

Mitogen-activated protein kinase kinase kinase kinase 4 (Homo sapiens), sequence (O95819 2-1239 limits assumed): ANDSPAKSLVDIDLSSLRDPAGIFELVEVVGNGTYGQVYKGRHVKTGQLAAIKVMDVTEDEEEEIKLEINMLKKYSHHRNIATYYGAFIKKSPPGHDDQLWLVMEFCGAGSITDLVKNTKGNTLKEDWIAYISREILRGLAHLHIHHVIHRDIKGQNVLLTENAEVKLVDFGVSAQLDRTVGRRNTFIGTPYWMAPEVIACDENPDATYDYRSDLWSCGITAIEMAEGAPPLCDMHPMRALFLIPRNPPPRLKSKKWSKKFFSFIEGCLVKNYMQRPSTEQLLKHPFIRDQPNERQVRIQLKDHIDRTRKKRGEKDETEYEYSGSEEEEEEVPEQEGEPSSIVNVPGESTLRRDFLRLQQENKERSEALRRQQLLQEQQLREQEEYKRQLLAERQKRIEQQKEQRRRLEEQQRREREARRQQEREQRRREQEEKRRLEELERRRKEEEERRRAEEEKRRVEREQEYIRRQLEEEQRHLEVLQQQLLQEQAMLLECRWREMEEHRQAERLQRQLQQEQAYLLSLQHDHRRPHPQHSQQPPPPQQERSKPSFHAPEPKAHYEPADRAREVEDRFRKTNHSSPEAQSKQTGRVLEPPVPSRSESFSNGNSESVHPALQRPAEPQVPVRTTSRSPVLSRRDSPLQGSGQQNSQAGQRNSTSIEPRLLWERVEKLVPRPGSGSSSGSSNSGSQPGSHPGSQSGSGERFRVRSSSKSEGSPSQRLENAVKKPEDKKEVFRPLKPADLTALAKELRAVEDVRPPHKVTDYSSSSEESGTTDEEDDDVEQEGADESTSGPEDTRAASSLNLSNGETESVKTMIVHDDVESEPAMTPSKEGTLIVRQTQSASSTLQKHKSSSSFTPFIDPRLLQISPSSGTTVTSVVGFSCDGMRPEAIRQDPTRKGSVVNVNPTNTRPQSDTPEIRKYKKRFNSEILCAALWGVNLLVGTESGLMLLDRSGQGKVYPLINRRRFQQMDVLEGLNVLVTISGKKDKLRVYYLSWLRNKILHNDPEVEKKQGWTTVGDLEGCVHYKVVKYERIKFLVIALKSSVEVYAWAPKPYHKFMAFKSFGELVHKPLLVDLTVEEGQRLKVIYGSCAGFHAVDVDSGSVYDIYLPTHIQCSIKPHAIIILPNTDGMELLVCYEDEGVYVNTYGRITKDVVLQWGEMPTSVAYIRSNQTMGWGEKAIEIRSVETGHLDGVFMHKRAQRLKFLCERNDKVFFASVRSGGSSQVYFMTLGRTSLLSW

## CNC(=O)c1ccccc1Oc1nc(Nc2cc(OC)c(OC)c(OC)c2)ncc1Br
[1]
  inhibition: 0%
[2]
  inhibition: 2%
[3]
  fold change (FC): 0.14

## CC(C)[C@H](NC(=O)c1cc(-c2cnn3cc(-c4ccc(OCCN5CCCCC5)cc4)cnc23)cs1)C(F)(F)F
[4]
  inhibition: 12%
[5]
  inhibition: 24%
[6]
  fold change (FC): 0.47
[7]
  inhibition: 42%
[8]
  inhibition: 47%

## O=C(N[C@@H](C1CC1)C(F)(F)F)c1cc(-c2cnn3cc(-c4ccc(F)cc4)cnc23)cs1
[9]
  inhibition: 0%
[10]
  fold change (FC): 0.53
[11]
  fold change (FC): 0.1

Source: ChEMBL document CHEMBL5653631, “A Potent and Selective ULK1 Inhibitor Suppresses Autophagy and Sensitizes Cancer Cells to Nutrient Stress” (iScience, 2018)
